Assay results reported in patent publication US20120277264A1, “ANTITHROMBOTIC AGENT” (Taiho Pharmaceutical Co., Ltd., priority 2009, published 2012).

Assays:
[1] = system: thrombus formation in the arteria testicularis; assay: Thrombus formation inhibitory action (FeCl3-induced thrombus, Test Example 1); type: in vivo; conditions: male ICR mice; for large thrombus formation time: control about 14 minutes
Experimental: Male ICR mice (ten weeks old) were used. Rhodamine 6G (platelet fluorescence-labeling agent) was administered to the tail vein under anesthesia. With the abdomen open, the arteria testicularis was subjected to FeCl3 treatment to induce thrombus formation. Thrombus formation was observed by a real time color three-dimensional observation device, and the thrombus formation time was measured. Suplatast tosilate (IPD), the compound of the present invention, was dissolved in water and orally administered in a single dose (100 mg/kg) 30 minutes before the FeCl3 treatment or for 7 consecutive days (100 mg/kg, 30 mg/kg, 10 mg/kg) before the FeCl3 treatment. In addition, as a control drug, tirofiban (0.3 μmol/kg) was intravenously administered.

[2] = Amount of bleeding after tail amputation (side effect, Test Example 2); type: in vivo, mice
Experimental: Male ICR mice (ten weeks old) were used. The last 2 mm of the tail was amputated with a scalpel under pentobarbital anesthesia, and the tail 2 cm from the tip was immediately immersed in 10 mL of physiological saline at 37° C. Twenty minutes later, the tail was removed from the physiological saline, and 1 mL of Triton X-100 (25% in water) was added. The absorbance at 546 nm was measured, and the amount of bleeding was determined from a calibration curve. Suplatast tosilate (IPD, 100 mg/kg), the compound of the present invention, and a control drug, warfarin (10 mg/kg) were dissolved in distilled water and orally administered in a single dose one hour before amputating the tail, or orally administered for 7 consecutive days before amputating the tail. Distilled water was administered to the control.

[3] = system: thrombus formation in the arteria testicularis; assay: Thrombus formation inhibition, combined use with cilostazol (FeCl3-induced thrombus, Test Example 3); type: in vivo; conditions: male ICR mice, control 12±3 minutes, P<0.05 vs. cont.
Experimental: Male ICR mice (ten weeks old) were used. Rhodamine 6G (platelet fluorescence-labeling agent) was administered to the tail vein under anesthesia. With the abdomen open, the arteria testicularis was subjected to FeCl3 treatment to induce thrombus formation. Thrombus formation was observed by a real time color three-dimensional observation device, and thrombus formation time was measured. Suplatast tosilate (IPD) (10 mg/kg) was dissolved in water and orally administered for 7 days before amputating the tail to the group that was given IPD alone. Cilostazol (10 mg/kg, 30 mg/kg, 100 mg/kg), a platelet aggregation inhibitor, was dissolved in water and orally administered in a single dose one hour before amputating the tail to the group that was given cilostazol alone. To the combination group of IPD and cilostazol, IPD (10 mg/kg) was orally administered for 7 days, and cilostazol (10 mg/kg) was orally administered in a single dose one hour before amputating the tail on the 7th day of the IPD administration.

## CCOCC(O)COc1ccc(NC(=O)CC[S+](C)C)cc1.Cc1ccc(S(=O)(=O)[O-])cc1 (racemic) [IPD, (±)-[2-[4-(3-ethoxy-2-hydroxypropoxy)phenylcarbamoyl]ethyl]dimethylsulfonium p-toluenesulfonate]
[1]; 100 mg/kg orally, single dose 30 minutes before FeCl3 treatment
  large thrombus formation time: 45 min
[1]; oral administration for 7 consecutive days (100, 30, 10 mg/kg) vs single dose
  large thrombus formation inhibitory action: clearly enhanced
[2]; mouse, in vivo, po, 100 mg/kg
  amount of bleeding: did not have a significant effect on the amount of bleeding
[3]; IPD alone 10 mg/kg orally for 7 days
  thrombus formation time: 36 ± 11 min

## O=C1CCc2cc(OCCCCc3nnnn3C3CCCCC3)ccc2N1 [cilostazol]
[3]; cilostazol alone, oral single dose (10, 30, 100 mg/kg tested; dose of this value not stated)
  thrombus formation time: 25 ± 5 min

## CCCCS(=O)(=O)N[C@@H](Cc1ccc(OCCCCC2CCNCC2)cc1)C(=O)O [tirofiban]
[1]; 0.3 μmol/kg intravenously, after FeCl3 stimulation
  large thrombus formation time: 60 min

## CC(=O)CC(c1ccccc1)c1c(O)c2ccccc2oc1=O (centres unmarked) [warfarin]
[2]; male ICR mice, 10 mg/kg orally for 7 consecutive days before amputating the tail
  amount of bleeding: notable effect of increasing the amount of bleeding
[2]; male ICR mice, 10 mg/kg orally, single dose one hour before amputating the tail
  amount of bleeding: notable effect of increasing the amount of bleeding
